Data taken from ChEMBL document CHEMBL1681683, “Synthesis and biological evaluation of 1,4-benzodiazepin-2-ones with antitrypanosomal activity” (Bioorg Med Chem, 2011).
In brackets after ≈: the same amount, converted by molar mass.

Tests used:
[1] = test system: Trypanosoma brucei brucei; assay: Antitrypanosomal activity against bloodstream form of Trypanosoma brucei brucei […] after 48 hrs by alamar blue assay; type: functional
[2] = test system: Trypanosoma brucei brucei; assay: Antitrypanosomal activity against TbAT1 and HAPT1-deficient Trypanosoma brucei brucei B48 after 48 hrs by alamar blue assay; type: functional, organism-based
[3] = test system: Trypanosoma brucei brucei; assay: Antitrypanosomal activity against bloodstream form of Trypanosoma brucei brucei s427 after 48 hrs by alamar blue assay; type: functional, organism-based; details: s427, 48 h
[4] = test system: Trypanosoma brucei brucei; assay: Resistance factor, ratio of IC50 for Trypanosoma brucei brucei B48 to IC50 for wild-type bloodstream form of Trypanosoma brucei brucei s427; type: functional
[5] = test system: Trypanosoma brucei brucei; assay: Antitrypanosomal activity against TbAT1-deficient Trypanosoma brucei brucei after 48 hrs by alamar blue assay; type: functional, organism-based
[6] = test system: Trypanosoma brucei brucei; assay: Resistance factor, ratio of IC50 for TbAT1-deficient bloodstream form of Trypanosoma brucei brucei to IC50 for wild-type bloodstream form of Trypanosoma brucei brucei s427; type: functional
[7] = Trypanosoma brucei, B48, 48 h, read-out: IC50
[8] = Trypanosoma brucei, 48 h, read-out: IC50

CC(C)[C@@H]1N=C(C2CCCCC2)c2cc(NC(=N)N)ccc2N(Cc2ccc(NC(=N)N)cc2)C1=O
MIC [1]: 0.78 µM (≈ 0.381 µg/mL)

O=C1Nc2ccccc2C(c2ccccc2)=N[C@H]1Cc1ccccc1
IC50 [2, 7]: 9230 nM
IC50 [3]: 13800 nM
Ratio IC50 [4]: 0.67
IC50 [5, 8]: 7840 nM
MIC [1]: 6.25 µM (≈ 2.04 µg/mL)
Ratio IC50 [6]: 0.57

O=C1Nc2ccccc2C(c2ccccc2)=N[C@@H]1Cc1ccccc1
MIC [1]: 50 µM (≈ 16.3 µg/mL)

CC(C)[C@H]1N=C(c2ccccc2)c2ccccc2NC1=O
MIC [1]: 200 µM (≈ 55.7 µg/mL)

CC(C)[C@@H]1N=C(c2ccccc2)c2ccccc2NC1=O
MIC [1]: 100 µM (≈ 27.8 µg/mL)

CC(C)C1=NCC(=O)Nc2ccccc21
MIC [1]: > 400 µM

CC(C)C1=N[C@@H](Cc2ccccc2)C(=O)Nc2ccccc21
MIC [1]: 50 µM (≈ 14.6 µg/mL)

CC(C)[C@@H]1N=C(C2CCCCC2)c2ccccc2NC1=O
MIC [1]: 25 µM (≈ 7.11 µg/mL)

CC(C)[C@@H]1N=C(C2CCCCC2)c2cc([N+](=O)[O-])ccc2NC1=O
MIC [1]: 12.5 µM (≈ 4.12 µg/mL)

O=C1Nc2ccccc2C(C2CCCCC2)=N[C@H]1Cc1ccccc1
MIC [1]: 12.5 µM (≈ 4.16 µg/mL)

O=C1Nc2ccccc2C(c2ccccn2)=N[C@H]1Cc1ccccc1
MIC [1]: 100 µM (≈ 32.7 µg/mL)

CC(C)[C@@H]1N=C(c2ccccc2)c2ccccc2N(C)C1=O
MIC [1]: 100 µM (≈ 29.2 µg/mL)

CC(C)[C@@H]1N=C(c2ccccc2)c2ccccc2N(Cc2ccccc2)C1=O
MIC [1]: 200 µM (≈ 73.7 µg/mL)

CC(C)[C@@H]1N=C(c2ccccc2)c2ccccc2N(Cc2ccccc2-c2ccccc2)C1=O
MIC [1]: 12.5 µM (≈ 5.56 µg/mL)

CC(C)[C@@H]1N=C(c2ccccc2)c2ccccc2N(Cc2cccc3cccnc23)C1=O
MIC [1]: 25 µM (≈ 10.5 µg/mL)

CC(C)[C@H]1N=C(c2ccccc2)c2ccccc2N(C)C1=O
MIC [1]: 200 µM (≈ 58.5 µg/mL)

CC(C)[C@H]1N=C(c2ccccc2)c2ccccc2N(Cc2ccccc2)C1=O
MIC [1]: 12.5 µM (≈ 4.61 µg/mL)

CN1C(=O)[C@H](Cc2ccccc2)N=C(c2ccccc2)c2ccccc21
MIC [1]: 50 µM (≈ 17 µg/mL)

O=C1[C@H](Cc2ccccc2)N=C(c2ccccc2)c2ccccc2N1Cc1ccccc1
MIC [1]: 6.25 µM (≈ 2.6 µg/mL)

O=C1[C@H](Cc2ccccc2)N=C(c2ccccc2)c2ccccc2N1Cc1ccc(-c2ccccc2)cc1
MIC [1]: 6.25 µM (≈ 3.08 µg/mL)

O=C1[C@H](Cc2ccccc2)N=C(c2ccccc2)c2ccccc2N1Cc1cccc(-c2ccccc2)c1
MIC [1]: 25 µM (≈ 12.3 µg/mL)

O=C1[C@H](Cc2ccccc2)N=C(c2ccccc2)c2ccccc2N1Cc1ccccc1-c1ccccc1
MIC [1]: 6.25 µM (≈ 3.08 µg/mL)

O=C1[C@H](Cc2ccccc2)N=C(c2ccccc2)c2ccccc2N1Cc1cccc2cccnc12
MIC [1]: 25 µM (≈ 11.7 µg/mL)

N#CCN1C(=O)[C@H](Cc2ccccc2)N=C(c2ccccc2)c2ccccc21
MIC [1]: 3.1 µM (≈ 1.13 µg/mL)

O=C(O)CN1C(=O)[C@H](Cc2ccccc2)N=C(c2ccccc2)c2ccccc21
MIC [1]: 50 µM (≈ 19.2 µg/mL)

CN1C(=O)[C@@H](Cc2ccccc2)N=C(c2ccccc2)c2ccccc21
MIC [1]: 400 µM (≈ 136 µg/mL)

O=C1[C@@H](Cc2ccccc2)N=C(c2ccccc2)c2ccccc2N1Cc1ccccc1
MIC [1]: 12.5 µM (≈ 5.21 µg/mL)

O=C1[C@H](COCc2ccccc2)N=C(c2ccccc2)c2ccccc2N1Cc1ccc(-c2ccccc2)cc1
MIC [1]: 25 µM (≈ 13.1 µg/mL)

O=C1[C@H](COCc2ccccc2)N=C(c2ccccc2)c2ccccc2N1Cc1cccc(-c2ccccc2)c1
MIC [1]: 25 µM (≈ 13.1 µg/mL)

O=C1[C@H](COCc2ccccc2)N=C(c2ccccc2)c2ccccc2N1Cc1cccc2cccnc12
MIC [1]: 12.5 µM (≈ 6.22 µg/mL)

CC(C)C1=NCC(=O)N(C)c2ccccc21
MIC [1]: 400 µM (≈ 86.5 µg/mL)

CC(C)C1=N[C@@H](Cc2ccccc2)C(=O)N(C)c2ccccc21
MIC [1]: 25 µM (≈ 7.66 µg/mL)

O=C1[C@H](Cc2ccccc2)N=C(C2CCCCC2)c2ccccc2N1Cc1ccccc1
MIC [1]: 6.25 µM (≈ 2.64 µg/mL)

Nc1ccc(CN2C(=O)[C@H](Cc3ccccc3)N=C(c3ccccc3)c3ccccc32)cc1
MIC [1]: 12.5 µM (≈ 5.39 µg/mL)

Nc1cccc(CN2C(=O)[C@H](Cc3ccccc3)N=C(c3ccccc3)c3ccccc32)c1
MIC [1]: 6.25 µM (≈ 2.7 µg/mL)

Nc1ccccc1CN1C(=O)[C@H](Cc2ccccc2)N=C(c2ccccc2)c2ccccc21
MIC [1]: 6.25 µM (≈ 2.7 µg/mL)

CC(C)[C@@H]1N=C(C2CCCCC2)c2ccccc2N(Cc2ccc(N)cc2)C1=O
MIC [1]: 6.25 µM (≈ 2.43 µg/mL)

CC(C)[C@@H]1N=C(C2CCCCC2)c2cc(N)ccc2N(Cc2ccc(N)cc2)C1=O
MIC [1]: 6.25 µM (≈ 2.53 µg/mL)

Nc1ccc(CN2C(=O)[C@H](Cc3ccccc3)N=C(C3CCCCC3)c3ccccc32)cc1
MIC [1]: 6.25 µM (≈ 2.73 µg/mL)

Nc1cccc(CN2C(=O)[C@H](Cc3ccccc3)N=C(C3CCCCC3)c3ccccc32)c1
MIC [1]: 6.25 µM (≈ 2.73 µg/mL)

Nc1ccc(CN2C(=O)[C@H](Cc3ccccc3)N=C(c3ccccn3)c3ccccc32)cc1
MIC [1]: 25 µM (≈ 10.8 µg/mL)

CC(C)[C@@H]1N=C(C2CCCCC2)c2cc(N)ccc2NC1=O
MIC [1]: 100 µM (≈ 29.9 µg/mL)

N=C(N)Nc1ccc(CN2C(=O)[C@H](Cc3ccccc3)N=C(c3ccccc3)c3ccccc32)cc1
IC50 [2, 7]: 1310 nM
IC50 [3]: 490 nM
Ratio IC50 [4]: 2.68
IC50 [5, 8]: 640 nM
MIC [1]: 0.78 µM (≈ 0.369 µg/mL)
Ratio IC50 [6]: 1.29

N=C(N)Nc1cccc(CN2C(=O)[C@H](Cc3ccccc3)N=C(c3ccccc3)c3ccccc32)c1
IC50 [2, 7]: 940 nM
IC50 [3]: 270 nM
Ratio IC50 [4]: 3.52
IC50 [5, 8]: 390 nM
MIC [1]: 0.78 µM (≈ 0.369 µg/mL)
Ratio IC50 [6]: 1.45

N=C(N)Nc1ccccc1CN1C(=O)[C@H](Cc2ccccc2)N=C(c2ccccc2)c2ccccc21
MIC [1]: 1.56 µM (≈ 0.739 µg/mL)

CC(C)[C@@H]1N=C(C2CCCCC2)c2ccccc2N(Cc2ccc(NC(=N)N)cc2)C1=O
MIC [1]: 6.25 µM (≈ 2.7 µg/mL)

N=C(N)Nc1ccc(CN2C(=O)[C@H](Cc3ccccc3)N=C(C3CCCCC3)c3ccccc32)cc1
MIC [1]: 0.78 µM (≈ 0.374 µg/mL)

N=C(N)Nc1cccc(CN2C(=O)[C@H](Cc3ccccc3)N=C(C3CCCCC3)c3ccccc32)c1
IC50 [2, 7]: 930 nM
IC50 [3]: 330 nM
Ratio IC50 [4]: 2.8
IC50 [5, 8]: 510 nM
MIC [1]: 1.56 µM (≈ 0.748 µg/mL)
Ratio IC50 [6]: 1.53

N=C(N)Nc1ccc(CN2C(=O)[C@H](Cc3ccccc3)N=C(c3ccccn3)c3ccccc32)cc1
MIC [1]: 3.13 µM (≈ 1.49 µg/mL)

CC(C)[C@@H]1N=C(C2CCCCC2)c2cc(NC(=N)N)ccc2NC1=O
MIC [1]: 1.56 µM (≈ 0.533 µg/mL)

N=C(N)NCCC[C@@H]1N=C(c2ccccc2)c2ccccc2NC1=O
MIC [1]: 400 µM (≈ 134 µg/mL)

O=C(CN1C(=O)[C@H](Cc2ccccc2)N=C(c2ccccc2)c2ccccc21)N1CCN(c2ncccn2)CC1
MIC [1]: 12.5 µM (≈ 6.63 µg/mL)

O=C(CN1C(=O)[C@H](Cc2ccccc2)N=C(c2ccccc2)c2ccccc21)N1CCN(c2ccccn2)CC1
MIC [1]: 6.25 µM (≈ 3.31 µg/mL)

O=C(CN1C(=O)[C@H](Cc2ccccc2)N=C(c2ccccc2)c2ccccc21)N1CCNCC1
MIC [1]: 12.5 µM (≈ 5.66 µg/mL)

Nc1nc(N)nc(Nc2ccc([As]3SCC(CO)S3)cc2)n1 (stereo not given) [MELARSOPROL]
IC50 [2]: Not Active
IC50 [5]: Not Active

N=C(N)c1ccc(OCCCCCOc2ccc(C(=N)N)cc2)cc1 [PENTAMIDINE]
IC50 [2]: Not Active
IC50 [5]: Not Active

O=C1CN=C(c2ccccc2)c2ccccc2N1 [RO-052921]
MIC [1]: 400 µM (≈ 94.5 µg/mL)

Cc1ccc(C(=O)Nc2ccc(S(=O)(=O)O)c3cc(S(=O)(=O)O)cc(S(=O)(=O)O)c23)cc1NC(=O)c1cccc(NC(=O)Nc2cccc(C(=O)Nc3cc(C(=O)Nc4ccc(S(=O)(=O)O)c5cc(S(=O)(=O)O)cc(S(=O)(=O)O)c45)ccc3C)c2)c1 [SURAMIN HEXASODIUM]
MIC [1]: 0.13 µM
